# Assays:
# Assay type in all cases: in vivo
# Agrostis tenuis (AGSTE) = assay: Herbicidal early post-emergence action (Table A1); details: 1900 g/ha; scored visually 9 to 12 days after treatment; 100% = plants have died, 0% = like control plants
# Experimental: (§1) Seeds of monocotyledonous and dicotyledonous weed plants were placed in 96-well microtiter plates in quartz sand and grown in a climatized chamber under controlled growth conditions. 5 to 7 days after sowing, the test plants were treated at the cotyledon stage. The compounds according to the invention, formulated in the form of emulsion concentrates (EC), were applied with a water application rate of the equivalent of 2200 liters per hectare. After the test plants had been left to stand in the climatized chamber for 9 to 12 days under optimum growth conditions, the effect of the preparations was scored visually in comparison to untreated controls. For example, 100% activity=the plants have died, 0% activity=like control plants. Tables A1 to A8 below show the effects of selected compounds of the general formula (I) according to Table 1 on various harmful plants and an application rate corresponding to 1900 g/ha, which were obtained by the experimental procedure mentioned above.
# [1] = tested on: harmful plants AGSTE, DIPTE, LOLPE, MATCH, POAAN, SETVI, STEME and VERPE; assay: Herbicidal early post-emergence action, summary of Tables A1-A8; details: application rate of 1900 g of active ingredient per hectare; summary in words
# Experimental: as §1, with “plants.” for “plants. Tables A1 to A8 below show the effects of selected compounds of the general formula (I) according to Table 1 on various harmful plants and an application rate corresponding to 1900 g/ha, which were obtained by the experimental procedure mentioned above.”
# Tables A1 to A8 below show the effects of selected compounds of the general formula (I) according to Table 1 on various harmful plants and an application rate corresponding to 1900 g/ha, which were obtained by the experimental procedure mentioned above.
# As the results of Tables A1-A8 show, compounds no.
# Veronica persica (VERPE) [2] = assay: Herbicidal pre-emergence action, test C (Table C12); details: visual scoring vs untreated controls
# Method in brief: (§2)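 Pre-emergence soil-surface spray, 1280 or 320 g/ha, WP/EC in water with 0.5% additive, 600 L/ha. Sandy loam pots, doubly sown. Greenhouse ~3 weeks; visual % effect vs untreated (0% = like control, 100% = dead).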
# [3] = tested on: Amaranthus retroflexus (AMARE); assay: Herbicidal post-emergence action (Table B6); details: visual rating about 3 weeks after treatment, 100% = plants have died, 0% = like control plants
# Method in brief: (§3)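 Weeds grown from seed in sandy loam in the greenhouse were sprayed at the one-leaf stage, 2 to 3 weeks after sowing, with WP or EC formulations in water plus 0.5% additive at 600 L/ha. Rates corresponded to 1280 or 320 g/ha; damage was rated visually versus untreated controls after about 3 weeks.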
# [4] = tested on: harmful plants ABUTH, AMARE, ECHCG, LOLRI, MATIN, POAAN, SETVI, STEME, ALOMY, DIGSA, KCHSC and VERPE; assay: Herbicidal pre-emergence action (test C), summary of Tables C1-C12; details: application rate of 1280 or 320 g of active ingredient per hectare; summary in words
# Method in brief: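 Pre-emergence pot test in sandy loam: WP or EC formulations were sprayed onto the covering soil with 0.5% additive at 600 L/ha water, at 1280 or 320 g/ha. Plants were kept in the greenhouse, and activity was rated visually about 3 weeks later as % versus untreated controls (100% = dead).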
# Veronica persica (VERPE) [5] = assay: Herbicidal post-emergence action (Table B12); details: visual rating about 3 weeks after treatment, 100% = plants have died, 0% = like control plants
# Method in brief: as §3
# Stellaria media (STEME) [6] = assay: Herbicidal pre-emergence action, test C (Table C8); details: dosage 1280 g/ha; visual scoring after about 3 weeks; 100% = plants have died, 0% = like control plants
# Method in brief: as §2
# Lolium rigidum (LOLRI) = assay: Herbicidal pre-emergence action, test C (Table C2); details: dosage 1280 g/ha; visual scoring after about 3 weeks; 100% = plants have died, 0% = like control plants
# From the text: Seeds of mono- and dicotyledonous weed plants were placed in plastic pots in sandy loam soil (doubly sown with one species each of mono- or dicotyledonous weed plants per pot) and covered with soil. The compounds of the invention, formulated in the form of wettable powders (WP) or as emulsion concentrates (EC), were then applied onto the surface of the covering soil as aqueous suspension or emulsion with addition of 0.5% additive at a water application rate of 600 liters per hectare (converted). After the treatment, the pots were placed in a greenhouse and kept under good growth conditions for the test plants. After about 3 weeks, the effect of the preparations was scored visually in comparison with untreated controls as percentages. For example, 100% activity=the plants have died, 0% activity=like control plants. Tables C1 to C12 below show the effects of selected compounds of the general formula (I) according to Table 1 on various harmful plants and an application rate corresponding to 1280 or 320 g/ha, which were obtained by the experimental procedure mentioned above.
# [7] = tested on: Amaranthus retroflexus (AMARE); assay: Herbicidal pre-emergence action, test C (Table C6); details: visual scoring after about 3 weeks, 100% = plants have died, 0% = like control plants
# Method in brief: as §2
# Poa annua (POAAN) = assay: Herbicidal pre-emergence action, test C (Table C3); details: visual scoring after about 3 weeks, 100% = plants have died, 0% = like control plants
# Method in brief: as §2
# [8] = tested on: harmful plants ABUTH, AMARE, ECHCG, LOLRI, MATIN, POAAN, SETVI, STEME, ALOMY, DIGSA, KCHSC and VERPE; assay: Herbicidal post-emergence action, summary of Tables B1-B12; details: application rate of 1280 or 320 g of active ingredient per hectare; summary in words
# Method in brief: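 Greenhouse weeds in sandy loam treated post-emergence at the one-leaf stage, 2–3 weeks after sowing, with WP or EC formulations sprayed with 0.5% additive at 600 L/ha water, 1280 or 320 g/ha. Damage rated visually after about 3 weeks versus untreated controls (0% = like control, 100% = dead).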
# [9] = tested on: Abutilon theophrasti (ABUTH); assay: Herbicidal pre-emergence action, test C (Table C5); details: dosage 1280 g/ha; visual scoring after about 3 weeks; 100% = plants have died, 0% = like control plants
# Method in brief: as §2
# Bassia scoparia (KCHSC) = assay: Herbicidal post-emergence action (Table B11); details: dosage 1280 g/ha; visual rating about 3 weeks after treatment; 100% = plants have died, 0% = like control plants
# Method in brief: as §3
# Setaria viridis (SETVI) = assay: Herbicidal pre-emergence action, test C (Table C4); details: dosage 1280 g/ha; visual scoring after about 3 weeks; 100% = plants have died, 0% = like control plants
# Method in brief: as §2
# [10] = tested on: Digitaria sanguinalis (DIGSA); assay: Herbicidal pre-emergence action, test C (Table C10); details: dosage 1280 g/ha; visual scoring after about 3 weeks; 100% = plants have died, 0% = like control plants
# Method in brief: as §2
# [11] = tested on: Matricaria inodora (MATIN); assay: Herbicidal pre-emergence action, test C (Table C7); details: dosage 1280 g/ha; visual scoring after about 3 weeks; 100% = plants have died, 0% = like control plants
# Method in brief: as §2
# Stellaria media (STEME) [12] = assay: Herbicidal post-emergence action (Table B8); details: dosage 1280 g/ha; visual rating about 3 weeks after treatment; 100% = plants have died, 0% = like control plants
# Method in brief: as §3
smiles,measurement,setting,value
Fc1cccc(Oc2ncc(Cl)cc2Cl)c1-c1cc(C(F)F)on1 [Example 1-12],Early post-emergence effect against Agrostis tenuis (AGSTE),Agrostis tenuis (AGSTE),80%
same,herbicidal activity against the harmful plants of Tables A1-A8 in early post-emergence treatment,[1],very good herbicidal activity
Cn1nc(C(F)F)cc1-c1c(F)cccc1Oc1ncc(Cl)cc1F [Example 1-82],Early post-emergence effect against Agrostis tenuis (AGSTE),Agrostis tenuis (AGSTE),80%
same,herbicidal activity against the harmful plants of Tables A1-A8 in early post-emergence treatment,[1],very good herbicidal activity
Cn1nc(-c2c(F)cccc2Oc2ccc(Cl)cn2)cc1C(F)F [Example 1-64],Pre-emergence action against Veronica persica (VERPE),Veronica persica (VERPE) [2]; dosage 320 g/ha,90%
same,Pre-emergence action against Veronica persica (VERPE),Veronica persica (VERPE) [2]; dosage 1280 g/ha,100%
same,Post-emergence action against Amaranthus retroflexus (AMARE),[3]; dosage 320 g/ha,100%
same,Post-emergence action against Amaranthus retroflexus (AMARE),[3]; dosage 1280 g/ha,100%
same,herbicidal activity against the harmful plants of Tables C1-C12 in pre-emergence treatment,[4],very good herbicidal activity
same,Post-emergence action against Veronica persica (VERPE),Veronica persica (VERPE) [5]; dosage 320 g/ha,90%
same,Post-emergence action against Veronica persica (VERPE),Veronica persica (VERPE) [5]; dosage 1280 g/ha,90%
same,Pre-emergence action against Stellaria media (STEME),Stellaria media (STEME) [6],100%
same,Pre-emergence action against Lolium rigidum (LOLRI),Lolium rigidum (LOLRI),90%
same,Pre-emergence action against Amaranthus retroflexus (AMARE),[7]; dosage 320 g/ha,100%
same,Pre-emergence action against Amaranthus retroflexus (AMARE),[7]; dosage 1280 g/ha,100%
same,Pre-emergence action against Poa annua (POAAN),Poa annua (POAAN); dosage 320 g/ha,90%
same,Pre-emergence action against Poa annua (POAAN),Poa annua (POAAN); dosage 1280 g/ha,100%
same,herbicidal activity against the harmful plants of Tables B1-B12 in post-emergence treatment,[8],very good herbicidal activity
same,Pre-emergence action against Abutilon theophrasti (ABUTH),[9],90%
same,Post-emergence action against Bassia scoparia (KCHSC),Bassia scoparia (KCHSC),90%
same,Pre-emergence action against Setaria viridis (SETVI),Setaria viridis (SETVI),100%
same,Pre-emergence action against Digitaria sanguinalis (DIGSA),[10],90%
same,Pre-emergence action against Matricaria inodora (MATIN),[11],90%
same,Post-emergence action against Stellaria media (STEME),Stellaria media (STEME) [12],100%
Fc1ccc(Oc2ccc(Cl)cn2)c(-c2cc(C(F)F)on2)c1 [Example 1-30],Early post-emergence effect against Agrostis tenuis (AGSTE),Agrostis tenuis (AGSTE),80%
same,herbicidal activity against the harmful plants of Tables A1-A8 in early post-emergence treatment,[1],very good herbicidal activity
FC(F)(F)c1cccc(-c2ccccc2Oc2ccccn2)n1 [Example 1-50],Early post-emergence effect against Agrostis tenuis (AGSTE),Agrostis tenuis (AGSTE),80%
same,herbicidal activity against the harmful plants of Tables A1-A8 in early post-emergence treatment,[1],very good herbicidal activity
Fc1cccc(Oc2ncc(C(F)(F)F)cc2Cl)c1-c1cc(C(F)F)on1 [Example 1-13],Early post-emergence effect against Agrostis tenuis (AGSTE),Agrostis tenuis (AGSTE),80%
same,herbicidal activity against the harmful plants of Tables A1-A8 in early post-emergence treatment,[1],very good herbicidal activity

# From US12052991B2, “Substituted pyridinyloxybenzenes and salts thereof and use thereof as herbicidal agents” (Bayer Aktiengesellschaft, priority 2018, dated 2024)
